Experimental data published in article PMC11960843, “Exploration of the tunability of BRD4 degradation by DCAF16 trans-labelling covalent glues” (European journal of medicinal chemistry, 2024).
Like-named read-outs stand apart in the source and are kept apart here.

Tests used:
BRD4BD1 = BRD4BD1 (Homo sapiens, UniProt O60885); test: BRD4 AlphaScreen competition assay (JQ1-biotin displacement), BRD4BD1; assay type: binding
BRD4BD2 [1] = molecular target: T1, BRD4BD2 (Homo sapiens, UniProt O60885); test: BRD4 AlphaScreen competition assay (JQ1-biotin displacement), BRD4BD2; assay type: binding
BRD4 [2] = molecular target: T2, BRD4 (Homo sapiens, UniProt O60885); test: Washout experiment, Western blot of BRD4 degradation in K562 cells; assay type: cell-based; design: an 11 amino acid peptide knock-in tag to a protein-of-interest using CRISPR insertion; endogenous in cells; conditions: K562, 1 μM; for BRD4 degradation after washout compared to no washout (in words): 4 h treatment, 20 h compound-free vs 24 h no washout
Experimental: This experiment involves cell treatment and incubation with a ‘covalent’ compound, followed by a wash-step where the cells are washed and resuspended in compound-free cell media.
Cells were washed with PBS and lysed in RIPA lysis buffer (Thermo Fisher Scientific) with Halt Protease Inhibitor Cocktail (Thermo Fisher Scientific) and Benzonase (Sigma-Aldrich) for 20 min on ice. […] Membranes were blocked in Intercept (PBS) Blocking Buffer (LI-COR Biosciences) and incubated with primary antibodies overnight at 4 °C. The membranes were then washed in Tris-buffered saline with Tween-20 (TBS-T), incubated for 1 h with secondary IRDye-conjugated antibodies (LI-COR Biosciences) and washed three times in TBS-T for 5 min before near-infrared western blot detection on an Odyssey Imaging System (LI-COR Biosciences).

BRD4 [3] = molecular target: T2, BRD4; test: Western blot of BRD4 degradation, wild-type K562 cells; assay type: cell-based; design: an 11 amino acid peptide knock-in tag to a protein-of-interest using CRISPR insertion; endogenous in cells; conditions: wild-type K562, 1 μM, 16 h
Experimental: (§1) Western blotting was used to determine the degradation potencies of the covalent BRD4 degraders.
(§2) Cells were washed with PBS and lysed in RIPA lysis buffer (Thermo Fisher Scientific) with Halt Protease Inhibitor Cocktail (Thermo Fisher Scientific) and Benzonase (Sigma-Aldrich) for 20 min on ice. The insoluble fraction was removed by centrifugation, the protein concentration was quantified using a BCA protein assay kit (Thermo Fisher Scientific), and an equal amount of lysate was run on SDS–PAGE 4–12% Bis–Tris Protein Gels (Thermo Fisher Scientific) and then transferred to nitrocellulose membrane with a XCell II Blot Module Wet Tank Transfer System (Thermo Fisher Scientific). Membranes were blocked in Intercept (PBS) Blocking Buffer (LI-COR Biosciences) and incubated with primary antibodies overnight at 4 °C. The membranes were then washed in Tris-buffered saline with Tween-20 (TBS-T), incubated for 1 h with secondary IRDye-conjugated antibodies (LI-COR Biosciences) and washed three times in TBS-T for 5 min before near-infrared western blot detection on an Odyssey Imaging System (LI-COR Biosciences).

BRD4BD2 [4] = molecular target: T1, BRD4BD2; test: BRD4BD2-eGFP and mCherry flow reporter degradation assay, wild type K562 cells; conditions: for Dmax: K562, read-out: maximal degradation (Dmax/16h) of BRD4BD2, K562 cells, 16 h incubation; for DC50: read-out: DC50 of BRD4BD2 degradation; for DC50 / DCAF16 dependent BRD4BD2 degradation (in words): K562 cells, 16 h incubation
Description: This assay involves the co-expression of mCherry with BRD4BD1/2 fused to an enhanced green fluorescent protein (eGFP) tag, and the subsequent fluorescence measurement of BRD4BD1/2-eGFP normalized to mCherry as a readout for BRD4BD1/2 degradation. It allows for a quantitative, rapid, and facile screening of several MGDs, in a dose-and time-dependent manner. […] Thus, the BRD4BD2 stability system was used to test all subsequent GNE011 analogs in wild type and DCAF16−/− cells.
One day after infection, reporter cells were selected with puromycin at a concentration of 2 μg/mL.
(§5) K562 cells stably expressing degradation reporter were dosed with DMSO or degraders at various times and concentrations using D300e Digital Dispenser (HP). The fluorescent signal was quantified by flow cytometry (LSRFortessa flow cytometer, BD Biosciences) and analyzed using FlowJo (flow cytometry analysis software, BD Biosciences). The geometric mean of the eGFP and mCherry fluorescent signal for round and mCherry-positive cells was calculated. GFP expression was normalized to mCherry signal and drug treatments were compared to DMSO controls.

[5] = molecular target: T3, BRD4BD2-DCAF16 ternary complex (Homo sapiens, UniProt O60885+Q9NXF7); test: DDB1-DCAF16-BRD4BD2 TR-FRET ternary complex formation assay; assay type: biochemical; conditions: for TR-FRETmax (520 nm/490 nm ratio): 6 h degrader incubation; for incubation time of saturation / maximum TR-FRET signal: measured at 1, 2, 4, 6 and 24 h; for BRD4BD2-DCAF16 ternary complex formation / DCAF16 recruitment (in words): time-dependent TR-FRET
T3 construct: E3 ligase to bromodomain 2 (BRD4BD2); His6 (N); StrepII (N); Avi (N); made in house; host or cells: BRD4BD2: E. coli (pET100/D-TOPO)
T3 sequence (Q9NXF7 whole entry, other chains not shown): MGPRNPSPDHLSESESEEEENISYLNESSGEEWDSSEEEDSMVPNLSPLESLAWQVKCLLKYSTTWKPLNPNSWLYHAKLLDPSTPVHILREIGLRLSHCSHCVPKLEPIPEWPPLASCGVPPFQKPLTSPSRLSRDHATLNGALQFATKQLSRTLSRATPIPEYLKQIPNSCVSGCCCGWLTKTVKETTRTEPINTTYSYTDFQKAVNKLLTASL
Description: To determine the relationship between covalent warheads and DCAF16 recruitment to BRD4BD2, we used a time-resolved fluorescence energy transfer (TR-FRET) assay to measure induced BRD4BD2-DCAF16 ternary complex formation (Fig. 3A).
Furthermore, we wanted to determine the kinetics of the BRD4BD2-DCAF16 interaction given its covalent nature. […] Additionally, to understand the relationship between ternary complex formation kinetics and warhead reactivity we measured the depletion of the covalent analogs in the presence of glutathione using MS (Table S2). […] Titrations of compounds to induce the DCAF16-BRD4BD complex were carried out by mixing 100 nM biotinylated BRD4BD2, 500 nM BODIPY-FL labeled DDB1ΔB-DCAF16 variants, and 2 nM terbium-coupled streptavidin (Invitrogen) in an assay buffer containing 50 mM HEPES pH 8.0, 200 mM NaCl, 0.1% Pluronic F-68 solution (Sigma), 0.5% bovine serum albumin (BSA) (w/v) and 1 mM TCEP. […] The TR-FRET signal of each data point was extracted by calculating the 520/490 nm ratio.

glutathione = test: GSH stability (glutathione reactivity) assay by LC-MS/MS; assay type: physicochemical; conditions: PBS containing 5 mM reduced glutathione; PBS + 5 mM GSH; extrapolated from 240 min assay
Description: Furthermore, we wanted to determine the kinetics of the BRD4BD2-DCAF16 interaction given its covalent nature. […] Additionally, to understand the relationship between ternary complex formation kinetics and warhead reactivity we measured the depletion of the covalent analogs in the presence of glutathione using MS (Table S2). […].

BRD4BD2 [6] = molecular target: T1, BRD4BD2; test: BRD4BD2-eGFP and mCherry flow reporter degradation assay, DCAF16 KO K562 cells
Description: In order to investigate the degradation of BRD4 by GNE011 and related analogs, we used a fluorescent stability reporter assay reported previously (Fig. 2A) [17]. This assay involves the co-expression of mCherry with BRD4BD1/2 fused to an enhanced green fluorescent protein (eGFP) tag, and the subsequent fluorescence measurement of BRD4BD1/2-eGFP normalized to mCherry as a readout for BRD4BD1/2 degradation. It allows for a quantitative, rapid, and facile screening of several MGDs, in a dose-and time-dependent manner. […] Thus, the BRD4BD2 stability system was used to test all subsequent GNE011 analogs in wild type and DCAF16−/− cells.
Lentivirus containing sgRNA was transduced to 2 × 10^6 of K562-Cas9 cells at 10% volume ratio by spin infection. FACS sorting was performed to enrich BFP+ cells one week after infection. […] Clonal sgDCAF16-expressing K562-Cas9 cells were isolated after one month of expansion, and the genomic sequences were validated via deep sequencing of PCR amplicons targeting sgDCAF16 cutting sites (MGH CCIB DNA Core Service).
as §5

BRD4 [7] = molecular target: T2, BRD4; test: BRD4-HiBiT assay, WT JURKAT cells; assay type: cell-based; design: an 11 amino acid peptide knock-in tag to a protein-of-interest using CRISPR insertion; endogenous in cells; host or cells: JURKAT, HiBiT-edited (wild type or DCAF16 knockout); conditions: 6 h
Experimental: (§3) Thereafter, we sought to characterize the BRD4 cellular degradation potencies in a dose-dependent manner at a shorter time point to minimize secondary effects. This was performed using the bioluminescent HiBiT-BRD4 assay, which consists of an 11 amino acid peptide knock-in tag to a protein-of-interest using CRISPR insertion. A complementary polypeptide (LgBiT) detects and interacts with all HiBiT tagged proteins, thereby reconstituting a luminescent NanoBiT enzyme, that can be quantified by its bioluminescence. WT and DCAF16 KO JURKAT cell lines expressing the BRD4-HiBiT system were generated to quantify dose-dependent BRD4 degradation after 6 h incubation (Fig. 4C).
(§4) After 6 h, the plates were subjected to Nano-Glo HiBiT Lytic detection system (Promega, #N3040) as described in manufacturer's manual. The assays were performed in biological triplicate. DC50 values were determined using a non-linear regression curve fit in GraphPad PRISM 9.5.1.

BRD4 [8] = molecular target: T2, BRD4; test: BRD4-HiBiT assay, DCAF16 KO JURKAT cells; assay type: cell-based; design: an 11 amino acid peptide knock-in tag to a protein-of-interest using CRISPR insertion; endogenous in cells; host or cells: JURKAT, HiBiT-edited (wild type or DCAF16 knockout); conditions: 6 h
Experimental: as §3, §4

BRD4 [9] = molecular target: T2, BRD4; test: Western blot of BRD4 degradation, DCAF16 KO K562 cells; assay type: cell-based; design: an 11 amino acid peptide knock-in tag to a protein-of-interest using CRISPR insertion; endogenous in cells; conditions: DCAF16 KO K562, 1 μM, 16 h
Experimental: as §1, §2

Row | SMILES | IC50 (BRD4BD1) | IC50 (BRD4BD2 [1]) | BRD4 degradation after washout compared to no washout (in words) (BRD4 [2]) | BRD4 degradation by Western blot (in words) (BRD4 [3]) | Dmax (BRD4BD2 [4]) | DC50 (BRD4BD2 [4]) | TR-FRETmax (520 nm/490 nm ratio) [5] | incubation time of saturation / maximum TR-FRET signal [5] | half-life (glutathione) | IC50 (BRD4BD1; read-out: IC50 BRD4BD1) | BRD4BD2 degradation activity in DCAF16 knockout cells (in words) (BRD4BD2 [6]) | BRD4 degradation (BRD4 [7]) | BRD4 degradation (in words) (BRD4 [7]) | BRD4 degradation in DCAF16 KO (in words) (BRD4 [8]) | IC50 (BRD4BD2 [1]; read-out: IC50 BRD4BD2) | BRD4 degradation without washout (in words) (BRD4 [2]; 24 h no washout) | DCAF16 dependent BRD4BD2 degradation (in words) (BRD4BD2 [4]) | BRD4BD2-DCAF16 ternary complex formation / DCAF16 recruitment (in words) [5] | BRD4 degradation by Western blot in DCAF16 KO (in words) (BRD4 [9]) | BRD4 degradation (BRD4 [7]; at 10 μM)
1 | Cc1sc2c(c1C)C(c1ccc(N)cc1)=N[C@@H](CC(=O)OC(C)(C)C)c1nnc(C)n1-2 [MMH248, tert-butyl (S)-2-(4-(4-aminophenyl)-2,3,9-trimethyl-6H-thieno[3,2-f][1,2,4]triazolo[4,3-a][1,4]diazepin-6-yl)acetate] | 12.5 nM | 4.29 nM |  |  |  |  |  |  |  |  |  |  |  |  |  |  |  |  |  | 
2 | Cc1sc2c(c1C)C(c1ccc(NC(=O)CCl)cc1)=N[C@@H](CC(=O)OC(C)(C)C)c1nnc(C)n1-2 [MMH249, tert-butyl (S)-2-(4-(4-(2-chloroacetamido)phenyl)-2,3,9-trimethyl-6H-thieno[3,2-f][1,2,4]triazolo[4,3-a][1,4]diazepin-6-yl)acetate] |  |  | no or minimal difference | moderate degradation | 56% | 8 nM | 0.77 | 24 h | 8.85 h | 3.98 nM | almost entirely ablated | < 60% | noticeable BRD4 degradation | completely rescued by DCAF16 KO | 2.59 nM |  |  |  |  | 
3 | Cc1sc2c(c1C)C(c1ccc(I)cc1)=N[C@@H](CC(=O)OC(C)(C)C)c1nnc(C)n1-2 [MMH263, tert-butyl (S)-2-(4-(4-iodophenyl)-2,3,9-trimethyl-6H-thieno[3,2-f][1,2,4]triazolo[4,3-a][1,4]diazepin-6-yl)acetate] | 11.7 nM | 4.96 nM |  |  |  |  |  |  |  |  |  |  |  |  |  |  |  |  |  | 
4 | COC(=O)/C=C/c1ccc(C2=N[C@@H](CC(=O)OC(C)(C)C)c3nnc(C)n3-c3sc(C)c(C)c32)cc1 [MMH269, methyl (S,E)-3-(4-(6-(2-(tert-butoxy)-2-oxoethyl)-2,3,9-trimethyl-6H-thieno[3,2-f][1,2,4]triazolo[4,3-a][1,4]diazepin-4-yl)phenyl)acrylate] |  |  |  |  |  |  | 0.18 |  | > 12.5 h | 10.5 nM |  |  |  |  | 5.07 nM | showed BRD4 degradation in 24 h no washout experiments | almost no DCAF16 dependent BRD4BD2 degradation | no significant DCAF16 recruitment |  | 
5 | Cc1sc2c(c1C)C(c1ccc(/C=C/C=O)cc1)=N[C@@H](CC(=O)OC(C)(C)C)c1nnc(C)n1-2 [TMX1, tert-butyl (S,E)-2-(2,3,9-trimethyl-4-(4-(3-oxoprop-1-en-1-yl)phenyl)-6H-thieno[3,2-f][1,2,4]triazolo[4,3-a][1,4]diazepin-6-yl)acetate] |  |  | no or minimal difference | nearly complete BRD4 degradation | 75% | 64 nM | 1.34 | 1 h | 6.92 h | 8.78 nM |  | < 60% | noticeable BRD4 degradation | completely rescued by DCAF16 KO | 33.9 nM |  |  |  | completely rescued by DCAF16 KO | 
6 | Cc1sc2c(c1C)C(c1ccc(C#CCO)cc1)=N[C@@H](CC(=O)OC(C)(C)C)c1nnc(C)n1-2 [TMX458, tert-butyl (S)-2-(4-(4-(3-hydroxyprop-1-yn-1-yl)phenyl)-2,3,9-trimethyl-6H-thieno[3,2-f][1,2,4]triazolo[4,3-a][1,4]diazepin-6-yl)acetate] |  |  |  |  | 10% | > 10000 nM | 0.16 |  |  | 10.1 nM |  |  |  |  | 3.92 nM |  | completely inactive | no significant DCAF16 recruitment |  | 
7 | Cc1sc2c(c1C)C(c1ccc(C#CC=O)cc1)=N[C@@H](CC(=O)OC(C)(C)C)c1nnc(C)n1-2 [TMX4128, tert-butyl (S)-2-(2,3,9-trimethyl-4-(4-(3-oxoprop-1-yn-1-yl)phenyl)-6H-thieno[3,2-f][1,2,4]triazolo[4,3-a][1,4]diazepin-6-yl)acetate] |  |  | no or minimal difference | nearly complete BRD4 degradation | 69% | 703 nM | 0.65 | 1 h | 8.83 h | 2.2 nM |  | < 60% | noticeable BRD4 degradation | completely rescued by DCAF16 KO | 21.7 nM |  |  | disintegration of the ternary complex overtime | completely rescued by DCAF16 KO | ~ 73%
